The data set has as its system HSPC-pDC.

We go through one compound from patent US20250017959A1 (priority 2021, published 2025).

Each structure is given as a SMILES string.

Take `CC[C@@H]1[C@H](F)C(=O)N[C@@H]1COc1nccc2cc(C(N)=O)c(OC)cc12` [IRAK4 inhibitor, Pf06650833]: the cell viability result was “without major effects”.
